# Measured values as given in patent publication US6617444B1, “Dinucleotide tetraphosphate crystals” (Yamasa Corporation, priority 1999, dated 2003).
# What was measured:
# [1] = Hygroscopicity: standing at controlled temperature and relative humidity; type: physicochemical
# Protocol: dCP4U.4Na crystals (decahydrate) having a water content of approximately 17.4% were allowed to stand for two days under the following conditions a), b) and c): a) 25° C. and a relative humidity of 57%; b) 25° C. and a relative humidity of 75%; c) 25° C. and a relative humidity of 93%. […] The crystals have proven to be stable and to have no hygroscopicity. In addition, the same crystals were allowed to stand for seven days under the following severe conditions d): d) 40° C. and a relative humidity of 75%.
# [2] = Stability: acceleration test, sealed bottles stored at 60° C.; type: physicochemical; details: sealed bottle, 13 days at 60° C. (acceleration test)
# Protocol: dCP4U.4Na crystals (decahydrate) and a freeze-dried product were individually placed in bottles, which were then sealed and stored for 13 days at 60° C. (acceleration test).
# [3] = two days, 25° C., relative humidity 75%
# [4] = two days, 25° C., relative humidity 93%
"change on standing under severe conditions ([1]; seven days, 40° C., relative humidity 75%)",decomposition on storage [2],purity loss on storage [2],SMILES,"decomposition or change in weight on standing (hygroscopicity) ([1]; two days, 25° C., relative humidity 57%)","decomposition or change in weight / state on standing (hygroscopicity) [1, 3]","decomposition or change in weight / state on standing (hygroscopicity) [1, 4]"
No change was observed,No decomposition,,"Nc1ccn([C@H]2CC(O)[C@@H](COP(=O)(O)OP(=O)(O)OP(=O)(O)OP(=O)(O)OC[C@H]3O[C@@H](n4ccc(=O)[nH]c4=O)C(O)C3O)O2)c(=O)n1 (stereo partly drawn) [dCP4U.4Na crystals (decahydrate), p^1-(2′-deoxycytidine 5′-)P^4-(uridine 5′-)tetraphosphate]",No decomposition or change in weight was observed,No decomposition or change in weight was observed,No decomposition or change in weight was observed
,partially decomposed,approximately 2.2%,"Nc1ccn([C@H]2CC(O)[C@@H](COP(=O)(O)OP(=O)(O)OP(=O)(O)OP(=O)(O)OC[C@H]3O[C@@H](n4ccc(=O)[nH]c4=O)C(O)C3O)O2)c(=O)n1 (stereo partly drawn) [freeze-dried product, p^1-(2′-deoxycytidine 5′-)P^4-(uridine 5′-)tetraphosphate, reference compound]",,assumed a mud-like state due to gradual increase in water content,assumed a mud-like state due to gradual increase in water content
